Laboratory results taken from US7786155B2, “Organic compounds” (Novartis AG, priority 2007, dated 2010).

What follows are compounds tested against T1, recombinant human NPY Y2 receptors (Homo sapiens, UniProt P49146) (assay: Scintillation proximity [35S]GTPγS binding assay (inhibition of 0.5 nM NPY-stimulated [35S]GTPγS binding)). Settings: 10 μM compound, membranes from CHO-C4 cells expressing recombinant human NPY Y2 receptors.
T1 construct: expressed in transfected cells; host or cells: CHO-C4 cells (membrane preparation)
T1 sequence (P49146 1-381): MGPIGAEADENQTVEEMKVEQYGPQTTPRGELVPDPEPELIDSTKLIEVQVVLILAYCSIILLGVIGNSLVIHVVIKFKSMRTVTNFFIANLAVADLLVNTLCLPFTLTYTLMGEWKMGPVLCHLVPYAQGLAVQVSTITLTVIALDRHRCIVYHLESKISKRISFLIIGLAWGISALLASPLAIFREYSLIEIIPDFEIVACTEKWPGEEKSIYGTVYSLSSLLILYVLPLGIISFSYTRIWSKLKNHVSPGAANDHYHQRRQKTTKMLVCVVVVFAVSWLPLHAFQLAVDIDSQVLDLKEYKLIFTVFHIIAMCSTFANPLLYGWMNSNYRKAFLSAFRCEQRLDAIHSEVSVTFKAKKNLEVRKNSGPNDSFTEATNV
Type: biochemical
Method: Preparation of Membranes: CHO-C4 cells expressing recombinant human NPY Y2 receptors were used to prepare membranes for the GTPγS assay. Cells were grown to 80-95% confluency on 15-cm (225 cm^2) tissue culture plates. After aspiration of the culture medium, cells were washed twice with 18 ml ice-cold phosphate-buffered saline (PBS), scraped off and suspended in 3 ml ice-cold PBS in pre-cooled centrifuge tubes. The dishes were rinsed with 2 ml ice-old PBS per dish and the washings were combined with the PBS cell suspension from above. Cells pooled from 5-7 dishes were centrifuged for 5 min at 10,000 rpm (12,000 g) in a Sorvall RC5B centrifuge using an SS34 rotor at […]. The cell pellet was resuspended in 5 ml ice-cold buffer (20 mM HEPES, 10 mM EDTA; pH 7.4) by vortexing (2-5 sec), homogenized using a Polytron (step 4 for 20-30 sec), and ice-cold buffer added to 25 ml. The suspension was centrifuged again for 20 min at 18,000 rpm (39,000 g) at 4° C. and the pellet resuspended in 5 ml ice-cold buffer (20 mM HEPES, 0.1 mM EDTA; pH 7.4) by vortexing (2-5 sec), homogenized with a Polytron (step 4 for 10 sec), and ice-cold buffer added to 25 ml. The suspension was centrifuged a third time for 20 min at 18,000 rpm (39,000 g) at 4° C. The pellet was resuspend in 1 ml ice-cold buffer (20 mM Hepes, 0.1 mM EDTA; pH 7.4) by vortexing (5-8 sec). Two to five resuspended pellets were combined and homogenized using a Polytron (step 4 for 15-25 sec). A small aliquot (20-50 μl) was removed for protein determination by the Coomassie Plus Protein Assay Reagent (Pierce) using BSA as standard. The membrane suspension was aliquoted in precooled (on dry ice) Eppendorf tubes (0.25-1 ml/tube affording approximately 0.5-2 mg of membrane protein/tube). The pellets were frozen and stored at −80° C.
Scintillation proximity [^35S]GTPγS binding assay: Frozen membranes from CHO-C4 cells expressing recombinant human NPY Y2 receptors (2 mg for four 96-well plates) were thawed on ice. Thawed membranes were pipetted into 10 ml of assay buffer (20 mM HEPES, 10 mM MgCl2, 100 mM NaCl, pH 7.4) and homogenized briefly using a Polytron. The final assay mixture was prepared in 96-well microtiter plates (Isoplate Wallac, Perkin Elmer). The composition of the assay mixtures in a final volume of 250 μl per well was as follows: 20 mM HEPES, 10 mM MgCl2, 100 mM NaCl, pH 7.4, 30 μM GDP, 1 mg/ml BSA (added fresh), 5 μg membrane protein, 1.5 mg Wheatgerm agglutinin SPA beads (Amersham), 0.45 nM [^35S]GTPγS (Amersham, SJ1308, 1000 Ci/mmol, stabilized solution), and the test compounds (agonists and/or antagonists) at the appropriate concentrations. The samples were incubated at room temperature for 90 min by shaking, after which the SPA beads were sedimented by centrifugation in an Eppendorf 5804 centrifuge at 2700 rpm for 10 min at room temperature. After 60 min the plates were counted in a TopCount (Canberra). Basal [^35S]GTPγS binding was measured in the absence of agonist (NPY). Non-specific binding was measured in the presence of excess (10 μM) unlabelled GTPγS (Sigma). Nonspecific binding never exceeded 10% of basal binding and was thus not subtracted from the experimental data. Antagonists were tested for the inhibition of 0.5 nM NPY-stimulated [^35S]GTPγS binding. Antagonist inhibition curves were analyzed by non-linear regression using GraphPad Prism software (Version 4.0, GraphPad Software Inc., CA, USA).
Antagonistic activity of compounds of the present invention was examined by the Scintillation proximity [^35S]GTPγS binding assay as described above (inhibition of 0.5 nM NPY-stimulated [^35S]GTPγS binding). The table below represents percentages of inhibition at a concentration of 10 μM.

Row | Compound | [%] inhibiton at 10 μM [%]
1 | CCCC1(c2ccc(F)cc2)N=C(C)N(CC(=O)c2ccc(N(C)C(=O)N(C)c3c(C)noc3C)cc2F)C1=O (racemic) [Compound 18] | 70
2 | COc1ccccc1CC(=O)Nc1ccc(C(=O)CN2C(=O)C(c3ccccc3)(c3ccccc3)N=C2C)cc1 [Compound 30, 2-(2-Methoxy-phenyl)-N-{4-[2-(2-methyl-5-oxo-4,4-phenyl-4,5-dihydro-imidazol-1yl)-acetyl]-phenyl}-acetamide] | 78
3 | CCCC1(c2ccccc2)N=C(C)N(CC(=O)c2ccc(NC(=O)C(CC)CC)cc2)C1=O (single isomer, unassigned; (+)) [Compound 25] | 92

More lines, now with the values ahead:

Row | [%] inhibiton at 10 μM [%] | Compound
4 | 87 | CCCC1(c2ccc(F)cc2)N=C(C)N(CC(=O)c2ccc(NC(=O)Cc3c(C)noc3C)cc2F)C1=O (racemic) [Compound 17]
5 | 75 | CCCC1(c2ccc(F)cc2)N=C(C)N(CC(=O)c2ccc(NC(=O)Cc3c(C)noc3C)cc2F)C1=O (single isomer, unassigned; (+)) [Compound 36, (+)-2-(3,5-Dimethyl-isoxazol-4-yl)-N-(3-fluoro-4-{2-[4-(4-fluoro-phenyl)-2-methyl-5-oxo-4-propyl-4,5-dihydro-imidazol-1-yl]-acetyl}-phenyl)-acetamide]

Same assay, conditions: 10 μM compound, membranes from CHO-C4 cells expressing recombinant human NPY Y2 receptors, read-out: [%] inhibiton at 10 μM

Row | Compound | inhibition at 10 µM [%]
6 | CCCC1(c2ccc(F)cc2)N=C(C)N(CC(=O)c2ccc(NC(=O)C(CC)CC)cc2)C1=O (racemic) [Compound 9, (+/−)-2-Ethyl-N-(4-{2-[4-(4-fluoro-phenyl)-2-methyl-5-oxo-4-propyl-4,5-dihydro-imidazol-1-yl]-acetyl}-phenyl)-butyramide] | 68
7 | CCCC1(c2ccccc2)N=C(C)N(CC(=O)c2ccc(NC(=O)Nc3c(C)noc3C)cc2)C1=O (racemic) [Compound 6, (+/−)-1-(3,5-Dimethyl-isoxazol-4-yl)-3-{4-[2-(2-methyl-5-oxo-4-phenyl-4-propyl-4,5-dihydro-imidazol-1-yl)-acetyl]-phenyl}-urea] | 99
8 | CCCC1(c2ccc(F)cc2)N=C(C)N(CC(=O)c2ccc(NC(=O)Nc3c(C)noc3C)cc2F)C1=O (racemic) [Compound 11, (+/−)-1-(3,5-Dimethyl-isoxazol-4-yl)-3-(3-fluoro-4-{2-[4-(4-fluoro-phenyl)-2-methyl-5-oxo-4-propyl-4,5-dihydro-imidazol-1-yl]acetyl}-phenyl)-urea] | 96
9 | CC1=NC(c2ccccc2)(c2ccccc2)C(=O)N1CC(=O)c1ccc(C(=O)NC(C)C(C)C)cc1 (racemic) [Compound 1, (+/−)-N-(1,2-Dimethyl-propyl)-4-[2-(2-methyl-5-oxo-4,4-diphenyl-4,5-dihydro-imidazol-1-yl)-acetyl]-benzamide] | 34
10 | CCC(CC)C(=O)Nc1ccc(CCN2C(=O)C(c3ccccc3)(c3ccccc3)N=C2C)cc1 [Compound 4, 2-Ethyl-N-{4-[2-(2-methyl-5-oxo-4,4-diphenyl-4,5-dihydro-imidazol-1-yl)ethyl]-phenyl}-butyramide] | 46
11 | CCCC1(c2ccc(F)cc2)N=C(C)N(CC(=O)c2ccc(NC(=O)C3CCOC3)cc2)C1=O (stereo not drawn) [Compound 16, Tetrahydro-furan-3-carboxylic acid (4-{2-[4-(4-fluoro-phenyl)-2-methyl-5-oxo-4-propyl-4,5-dihydro-imidazol-1-yl]-acetyl}-phenyl)-amide] | 28
12 | CC1=NC(c2ccccc2)(c2ccccc2)C(=O)N1CC(=O)c1ccc(NC(=O)Nc2c(C)noc2C)cc1 [Compound 27, 1-(3,5-Dimethyl-isoxazol-4-yl)-3-{4-[2-(2-methyl-5-oxo-4,4-diphenyl-4,5-dihydro-imidazol-1-yl)-acetyl]-phenyl}-urea] | 100
13 | CCC(CC)C(=O)Nc1ccc(C(=O)CN2C(=O)C(c3ccccc3)(c3ccccc3)N=C2C)c(F)c1 [Compound 33, 2-Ethyl-N-{3-fluoro-4-[2-(2-methyl-5-oxo-4,4-diphenyl-4,5-dihydro-imidazol-1-yl)-acetyl]-phenyl}-butyramide] | 60
14 | CC1=NC(c2ccccc2)(c2ccccc2)C(=O)N1CC(=O)c1ccc(NC(=O)Cc2ccccc2C)cc1 [Compound 22, N-{4-[2-(2-Methyl-5-oxo-4,4-diphenyl-4,5-dihydro-imidazol-1-yl)-acetyl]-phenyl}-2-o-tolyl-acetamide] | 55

Further lines, results first:

Row | inhibition at 10 µM [%] | Compound
15 | 46 | COc1ccccc1C(=O)Nc1ccc(C(=O)CN2C(=O)C(c3ccccc3)(c3ccccc3)N=C2C)cc1 [Compound 23, 2-Methoxy-N-{4-[2-(2-methyl-5-oxo-4,4-diphenyl-4,5-dihydro-imidazol-1-yl)-acetyl]-phenyl}-benzamide]
16 | 92 | CCCC1(c2ccc(F)cc2)N=C(C)N(CC(=O)c2ccc(NC(=O)Cc3c(C)noc3C)cc2F)C1=O (single isomer, unassigned; (-)) [Compound 35, (−)-2-(3,5-Dimethyl-isoxazol-4-yl)-N-(3-fluoro-4-{2-[4-(4-fluoro-phenyl)-2-methyl-5-oxo-4-propyl-4,5-dihydro-imidazol-1-yl]-acetyl}-phenyl)acetamide]
17 | 42 | CCCC1(c2ccccc2)N=C(C)N(CC(=O)c2ccc(NC(=O)C3CCOC3)cc2F)C1=O (stereo not drawn) [Compound 15, Tetrahydro-furan-3-carboxylic acid {3-fluoro-4-[2-(2-methyl-5-oxo-4-phenyl-4-propyl-4,5-dihydro-imidazol-1yl)-acetyl]-phenyl}-amide]
18 | 91 | CCCC1(c2ccc(F)cc2)N=C(C)N(CC(=O)c2ccc(NC(=O)Nc3c(C)noc3C)cc2)C1=O (racemic) [Compound 7, (+/−)-1-(3,5-Dimethyl-isoxazol-4-yl)-3-(4-{2-[4-(4-fluoro-phenyl)-2-methyl-5-oxo-4-propyl-4,5-dihydro-imidazol-1-yl]-acetyl}-phenyl)urea]
19 | 61 | CC1=NC(c2ccccc2)(c2ccccc2)C(=O)N1CC(=O)c1ccc(NC(=O)c2ccccc2F)cc1 [Compound 21, 2-Fluoro-N-{4-[2-(2-methyl-5-oxo-4,4-diphenyl-4,5-dihydro-imidazol-1-yl)-acetyl]-phenyl}-benzamide]
20 | 65 | CCC(CC)C(=O)Nc1ccc(C(=O)CN2C(=O)C(c3ccccc3)(c3ccccc3)N=C2C)cc1 [Compound 34, 2-Ethyl-N-{4-[2-(2-methyl-5-oxo-4,4-diphenyl-4,5-dihydro-imidazol-1-yl)-acetyl]-phenyl}-butyramide]
21 | 45 | CCC(CC)C(=O)Nc1ccc(C(O)CN2C(=O)C(c3ccccc3)(c3ccccc3)N=C2C)cc1 (racemic) [Compound 26, (+/−)-2-Ethyl-N-{4-[1-hydroxy-2-(2-methyl-5-oxo-4,4-diphenyl-4,5-dihydro-imidazol-1-yl)-ethyl]-phenyl}-butyramide]
